Patent US9630991B2, “βsheet tapes ribbons in tissue engineering” (University of Leeds, priority 2002, dated 2017)
“Also recorded” adds a separate entry of the source. Where a name gives a salt, the structure may show the parent alone. Where a SMILES comes first, the peptide text is derived from it. Where no end group is shown, it is not given here. [ ]: non-standard residue; d: D form. Orn = NCCC[C@H](N)C(=O)O

Legend:
[1] = Net charge of peptide at pH 7.5 in physiological solution; assay type: physicochemical; details: per peptide, pH 7.5, physiological solution
[2] = Fibril dimensions measured from TEM images; assay type: physicochemical; details: physiological conditions, TEM
Experimental: For, electron microscopy, samples were examined using a Phillips CM10 TEM at 80-100 kV accelerating voltage. Gels were diluted to a peptide concentration of 20 μM seconds before application to a glow-discharged, carbon-coated, copper grid followed by coating with uranyl acetate solution (4% w/v in water).
The dimensions of the fibrils formed by these peptides are given in Table 2, and TEM images from which these measurements were obtained are shown in FIGS. 6A-6D. These dimensions are—the length of a peptide fibril (contour length, L), the length of a peptide fibril before it curves (persistence length, l), the length of a full twist of a peptide fibril (twist pitch, h) the width of a fibril at its widest point (ww) and the width of the fibril at its narrowest point as it twists (wn).

L929 fibroblast cells = assay: Cell density in peptide gels by ATPLite assay; assay type: cell-based, murine
Excerpt: After establishing that the peptides tested were not cytotoxic when placed in culture with L929 fibroblast cells, the next stage was assessing the suitability of the collagen peptide gels for use in supporting cell proliferation.

[3] = Self-assembly and gel formation in physiological solution / cell media; assay type: physicochemical; details: for peptide concentration for self-supporting gel: physiological conditions
Excerpt: A large number (dozens) of systematically varied peptides (typically 7-30 residues long) have been studied for soluble polymer and gel formation in cell media. […] Only peptides with a approximate net +2 or −2 charge per peptide at physiological pH=7.5, were able to form soluble polymers and gel cell media (The amount of net charge necessary per peptide to keep its polymers soluble in cell media will vary depending on the overall surface properties and solubility of the peptide tapes it forms). […] These peptides retained a predominantly monomeric state and their solutions in cell media were fluids up to around 40 mg/ml peptide concentration.
The rationally designed peptide P11-8 (Tables 1A and 1C) was dissolved in 145 mM NaCl, pH˜7.5 aqueous solution (the ionic strength and pH values of the solution were similar to those present in cell culture medium) or it was added directly in cell culture medium.
The fibrils of P11-8 entwined partly with each other forming a three dimensional network and turned the peptide solution in cell media into a homogeneous self-supporting gel at peptide concentration higher than 15 mg/ml.
The gel could be temporarily broken by mechanical agitation. The time it took the gel to reform depended on the peptide concentration, ranging from seconds for a 35 mg/ml peptide gel, to hours for a 15 mg/ml peptide gel.

[4] = test system: tissue surrounding the injection site; design: species or system mice; details: mouse, in vivo
Excerpt: Injection of P11-3 and P11-8 peptide solutions in cell media in mice has shown no effect of the presence of the peptide in the tissue surrounding the injection site as judged by histology after two and eight weeks following the peptide injection.

Molecule | Net charge at pH 7.5 [1] | L, fibril contour length [2] | h, twist pitch [2] | l, fibril persistence length [2] | wn, width of the fibril at its narrowest point [2] | ww, width of the fibril at its widest point [2] | also measured
CC(=O)N[C@@H](CO)C(=O)N[C@@H](CO)C(=O)N[C@@H](CCCNC(=N)N)C(=O)N[C@@H](Cc1ccccc1)C(=O)N[C@@H](CCC(=O)O)C(=O)N[C@@H](Cc1c[nH]c2ccccc12)C(=O)N[C@@H](CCC(=O)O)C(=O)N[C@@H](Cc1ccccc1)C(=O)N[C@@H](CCC(=O)O)C(=O)N[C@@H](CO)C(=O)N[C@@H](CO)C(N)=O [Peptide P11-9, CH3CO-S-S-R-F-E-W-E-F-E-S-S-NH2] (Ac-SSRFEWEFESS-NH2) | −2 | 1.1-5 μm | 118-236 nm | 0.4-1.3 μm | 3.5-7 nm | 7-12 nm | support of cell growth (L929 fibroblast cells; L929 cells in peptide gels): unsuccessful in supporting cell growth
CC(=O)N[C@@H](CO)C(=O)N[C@@H](CO)C(=O)N[C@@H](CCCNC(=N)N)C(=O)N[C@@H](Cc1ccccc1)C(=O)N[C@@H](CCCN)C(=O)N[C@@H](Cc1c[nH]c2ccccc12)C(=O)N[C@@H](CCCN)C(=O)N[C@@H](Cc1ccccc1)C(=O)N[C@@H](CCC(=O)O)C(=O)N[C@@H](CO)C(=O)N[C@@H](CO)C(N)=O [Peptide P11-12, CH3CO-S-S-R-F-O-W-O-F-E-S-S-NH2] (Ac-SSRF[Orn]W[Orn]FESS-NH2) | +2 | 1.3-5 μm | 139-220 nm | 0.4-1.2 μm | 5-7 nm | 11-16 nm | support of cell growth (L929 fibroblast cells; L929 cells in peptide gels): unsuccessful in supporting cell growth
CC(=O)N[C@H](C(=O)N[C@H](C(=O)N[C@@H](CCCNC(=N)N)C(=O)N[C@@H](Cc1ccccc1)C(=O)N[C@@H](CCC(=O)O)C(=O)N[C@@H](Cc1c[nH]c2ccccc12)C(=O)N[C@@H](CCC(=O)O)C(=O)N[C@@H](Cc1ccccc1)C(=O)N[C@@H](CCC(=O)O)C(=O)N[C@H](C(=O)N[C@H](C(N)=O)[C@@H](C)O)[C@@H](C)O)[C@@H](C)O)[C@@H](C)O [Peptide P11-17, CH3CO-T-T-R-F-E-W-E-F-E-T-T-NH2] (Ac-TTRFEWEFETT-NH2) | −2 | 1.3-4.5 μm | 150-236 nm | 0.3-1.7 μm | 5-10 nm | 10-16 nm | 
CC(=O)N[C@H](C(=O)N[C@H](C(=O)N[C@@H](CCCNC(=N)N)C(=O)N[C@@H](Cc1ccccc1)C(=O)N[C@@H](CCCN)C(=O)N[C@@H](Cc1c[nH]c2ccccc12)C(=O)N[C@@H](CCCN)C(=O)N[C@@H](Cc1ccccc1)C(=O)N[C@@H](CCC(=O)O)C(=O)N[C@H](C(=O)N[C@H](C(N)=O)[C@@H](C)O)[C@@H](C)O)[C@@H](C)O)[C@@H](C)O [Peptide P11-18, CH3CO-T-T-R-F-O-W-O-F-E-T-T-NH2] (Ac-TTRF[Orn]W[Orn]FETT-NH2) | +2 | 1.4-4.2 μm | 142-236 nm | 0.5-1.7 μm | 7-11 nm | 11-21 nm | support of cell growth (L929 fibroblast cells; L929 cells in peptide gels): unsuccessful in supporting cell growth
CC(=O)N[C@@H](CCC(N)=O)C(=O)N[C@@H](CCC(N)=O)C(=O)N[C@@H](CCCNC(=N)N)C(=O)N[C@@H](CCC(N)=O)C(=O)N[C@@H](CCCN)C(=O)N[C@@H](CCC(N)=O)C(=O)N[C@@H](CCCN)C(=O)N[C@@H](CCC(N)=O)C(=O)N[C@@H](CCC(=O)O)C(=O)N[C@@H](CCC(N)=O)C(=O)N[C@@H](CCC(N)=O)C(N)=O [Peptide P11-19, CH3CO-Q-Q-R-Q-O-Q-O-Q-E-Q-Q-NH2] (Ac-QQRQ[Orn]Q[Orn]QEQQ-NH2) | +2 | 1.5-3 μm | 206-356 nm | 0.5-1 μm | 7-13 nm | 15-22 nm | peptide concentration for self-supporting gel [3]: 60 mg/mL; self-assembly / gelation at 30 mg·ml^−1 ([3]; physiological solution, 30 mg·ml^−1): does not self assemble; also recorded: did not gel
CC(=O)N[C@@H](CCC(N)=O)C(=O)N[C@@H](CCC(N)=O)C(=O)N[C@@H](CCCNC(=N)N)C(=O)N[C@@H](CCC(N)=O)C(=O)N[C@@H](CCC(=O)O)C(=O)N[C@@H](CCC(N)=O)C(=O)N[C@@H](CCC(=O)O)C(=O)N[C@@H](CCC(N)=O)C(=O)N[C@@H](CCC(=O)O)C(=O)N[C@@H](CCC(N)=O)C(=O)N[C@@H](CCC(N)=O)C(N)=O [Peptide P11-20, CH3CO-Q-Q-R-Q-E-Q-E-Q-E-Q-Q-NH2] (Ac-QQRQEQEQEQQ-NH2) | −2 | 0.9-2.8 μm | 202-363 nm | 0.4-1.5 μm | 8-15 nm | 14-20 nm | peptide concentration for self-supporting gel [3]: > 20 mg/mL; support of cell growth (L929 fibroblast cells; L929 cells in peptide gels): supported cell growth reasonably well; macroscopic appearance of gel (L929 fibroblast cells; at end of cell culture experiment): some signs of macroscopic degradation
O=C(O)C(F)(F)F [TFA] |  |  |  |  |  |  | support of cell growth (L929 fibroblast cells; collagen gels supplemented with 0.9 mg·ml^−1 TFA): supported cell growth with no obvious detrimental effect on the cells; support of cell growth (L929 fibroblast cells; collagen gels supplemented with 5.1 mg·ml^−1 TFA): supported cell growth with no visible detrimental effect on cell growth
CH3CO-E-Q-E-F-E-W-E-F-E-Q-E-HN2 (Ac-EQEFEWEFEQE-NH2) [Peptide P11-13] | -6 |  |  |  |  |  | 
CH3CO-Q-Q-O-F-O-W-O-F-O-Q-Q-NH2 (Ac-QQ[Orn]F[Orn]W[Orn]F[Orn]QQ-NH2; SMILES CC(=O)N[C@@H](CCC(N)=O)C(=O)N[C@@H](CCC(N)=O)C(=O)N[C@@H](CCCN)C(=O)N[C@@H](Cc1ccccc1)C(=O)N[C@@H](CCCN)C(=O)N[C@@H](Cc1c[nH]c2ccccc12)C(=O)N[C@@H](CCCN)C(=O)N[C@@H](Cc1ccccc1)C(=O)N[C@@H](CCCN)C(=O)N[C@@H](CCC(N)=O)C(=O)N[C@@H](CCC(N)=O)C(N)=O) [Peptide P11-14] | +4 |  |  |  |  |  | 
CH3CO-Q-Q-R-F-E-W-E-F-E-Q-Q-NH2 (Ac-QQRFEWEFEQQ-NH2) [Peptide P11-4] | −2 | 1.2-7 μm | 132-360 nm | 0.7-1.4 μm | 5.5-8 nm | 8-14 nm | 
QQE^-FE^-WE^-FE^±QQ (QQEFEWEFEQQ; self assembling peptide P11-23) | -4 |  |  |  |  |  | 
QQO^+FO^+WO^+FQQQ (QQ[Orn]F[Orn]W[Orn]FQQQ; not fully specified (N-terminus, C-terminus); printed as QQO+FO+WO+FQQQ) [Peptide P11-5] | +3 |  |  |  |  |  | 
QQQFE^-WE^-FE^±QQ (QQQFEWEFEQQ; self assembling peptide P11-22) | -3 |  |  |  |  |  | 
QQQFQWQFE^-QQ (QQQFQWQFEQQ; self assembling peptide P11-21) | -1 |  |  |  |  |  | 
QQR^+FQWQFQQQ (QQRFQWQFQQQ; self assembling peptide P11-3) |  |  |  |  |  |  | fibrils and gels after sterilisation using an autoclave ([3]; cell media): reform after sterilisation using an autoclave; effect on tissue surrounding the injection site by histology [4]: no effect
